Assays:
blackgrass [1] = test: Test A preemergence; type: in vivo, Alopecurus myosuroides
Method in brief: (§1)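 Plants were grown in loam and sand and treated preemergence or postemergence (one- to two-leaf stage, 2–10 cm) with compound in solvent plus surfactant. Response was scored against untreated controls after 10 greenhouse days, where 0 means no effect and 100 complete control.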

corn [2] = test: Test A preemergence; type: in vivo, Zea mays
Method in brief: as §1

foxtail, giant [3] = test: Test A preemergence; type: in vivo, Setaria faberi
Method in brief: as §1

goosegrass [4] = test: Test A preemergence; type: in vivo, Eleusine indica
Method in brief: as §1

kochia [5] = test: Test A preemergence; type: in vivo, Bassia scoparia
Method in brief: as §1

oat, wild [6] = test: Test A preemergence; type: in vivo, Avena fatua
Method in brief: as §1

pigweed, palmer [7] = test: Test A preemergence; type: in vivo, Amaranthus palmeri
Method in brief: as §1

ragweed [8] = test: Test A preemergence; type: in vivo, Ambrosia artemisiifolia
Method in brief: as §1

ryegrass, Italian [9] = test: Test A preemergence; type: in vivo, Lolium multiflorum
Method in brief: as §1

soybean [10] = test: Test A preemergence; type: in vivo, Glycine max
Method in brief: as §1

wheat [11] = test: Test A preemergence; type: in vivo, Triticum aestivum
Method in brief: as §1

blackgrass [12] = test: Test A postemergence; type: in vivo, Alopecurus myosuroides; conditions: postemergence, 10 days
Method in brief: as §1

corn [13] = test: Test A postemergence; type: in vivo, Zea mays; conditions: postemergence, 10 days
Method in brief: as §1

foxtail, giant [14] = test: Test A postemergence; type: in vivo, Setaria faberi; conditions: postemergence, 10 days
Method in brief: as §1

goosegrass [15] = test: Test A postemergence; type: in vivo, Eleusine indica; conditions: postemergence, 10 days
Method in brief: as §1

kochia [16] = test: Test A postemergence; type: in vivo, Bassia scoparia; conditions: postemergence, 10 days
Method in brief: as §1

oat, wild [17] = test: Test A postemergence; type: in vivo, Avena fatua; conditions: postemergence, 10 days
Method in brief: as §1

pigweed, palmer [18] = test: Test A postemergence; type: in vivo, Amaranthus palmeri; conditions: postemergence, 10 days
Method in brief: as §1

ragweed [19] = test: Test A postemergence; type: in vivo, Ambrosia artemisiifolia; conditions: postemergence, 10 days
Method in brief: as §1

ryegrass, Italian [20] = test: Test A postemergence; type: in vivo, Lolium multiflorum; conditions: postemergence, 10 days
Method in brief: as §1

soybean [21] = test: Test A postemergence; type: in vivo, Glycine max; conditions: postemergence, 10 days
Method in brief: as §1

wheat [22] = test: Test A postemergence; type: in vivo, Triticum aestivum; conditions: postemergence, 10 days
Method in brief: as §1

galium = test: Test A postemergence; type: in vivo, Galium aparine; conditions: postemergence, 10 days
Method in brief: as §1

horseweed = test: Test A postemergence; type: in vivo, Erigeron canadensis; conditions: postemergence, 10 days
Method in brief: as §1

barnyardgrass = test: Test B flooded paddy test; type: in vivo, Echinochloa crus-galli; conditions: 250 g ai/ha, Flood, 13 days, 0 to 100 scale (0 no effect, 100 complete control)
Method in brief: (§2)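 Two-leaf plants, 3 cm flood, in-water application, 13-day greenhouse hold, visual 0–100 rating vs untreated checks.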

ducksalad = test: Test B flooded paddy test; type: in vivo, Heteranthera limosa; conditions: 250 g ai/ha, Flood, 13 days, 0 to 100 scale (0 no effect, 100 complete control)
Method in brief: as §2

rice = test: Test B flooded paddy test; type: in vivo, Oryza sativa; conditions: 250 g ai/ha, Flood, 13 days, 0 to 100 scale (0 no effect, 100 complete control)
Method in brief: as §2

sedge, umbrella = test: Test B flooded paddy test; type: in vivo, Cyperus difformis; conditions: 250 g ai/ha, Flood, 13 days, 0 to 100 scale (0 no effect, 100 complete control)
Method in brief: as §2

[23] = 125 g ai/ha, visual injury after 10 days, 0 to 100 scale, 0 is no effect, 100 is complete control
[24] = 500 g ai/ha, 0 to 100 scale (0 no effect, 100 complete control), 10 days
[25] = 125 g ai/ha, 0 to 100 scale, 0 no effect, 100 complete control
[26] = 500 g ai/ha, visual injury, 0 to 100 scale (0 no effect, 100 complete control)

CCc1ncn(-c2ccc(CC)c(C(=O)N3C[C@H](C)Oc4c(Cl)cccc43)c2)n1 [Compound 95]
40: Wheat plant response rating (wheat [22]; [25])
100: Plant response rating, Corn (corn [2]; [24]) | Plant response rating, Foxtail, Giant (foxtail, giant [3]; [23]) | Plant response rating, Foxtail, Giant (foxtail, giant [3]; [24]) | Plant response rating, Goosegrass (goosegrass [4]; [23]) | Plant response rating, Goosegrass (goosegrass [4]; [24]) | Plant response rating, Kochia (kochia [5]; [24]) | Plant response rating, Pigweed, Palmer (pigweed, palmer [7]; [24]) | Plant response rating, Ryegrass, Italian (ryegrass, Italian [9]; [23]) | Plant response rating, Ryegrass, Italian (ryegrass, Italian [9]; [24]) | Plant response rating, Soybean (soybean [10]; [24]) | Plant response rating, Ryegrass, Italian (ryegrass, Italian [20]; [26]) | Soybean plant response rating (soybean [21]; [25]) | Plant response rating, Soybean (soybean [21]; [26]) | Galium plant response rating (galium; [25]) | Plant response rating, Galium (galium; [26])
50: Plant response rating, Soybean (soybean [10]; [23]) | Pigweed, Palmer plant response rating (pigweed, palmer [18]; [25]) | Plant response rating, Ragweed (ragweed [19]; [26])
80: Plant response rating, Blackgrass (blackgrass [1]; [24]) | Plant response rating, Oat, Wild (oat, wild [6]; [23]) | Blackgrass plant response rating (blackgrass [12]; [25]) | Goosegrass plant response rating (goosegrass [15]; [25]) | Kochia plant response rating (kochia [16]; [25]) | Plant response rating, Oat, Wild (oat, wild [17]; [26]) | Plant response rating, Wheat (wheat [22]; [26])
70: Plant response rating, Blackgrass (blackgrass [1]; [23]) | Plant response rating, Ragweed (ragweed [8]; [24]) | Oat, Wild plant response rating (oat, wild [17]; [25])
30: Plant response rating, Horseweed (horseweed; [26])
0: Plant response rating, Ragweed (ragweed [8]; [23]) | Ragweed plant response rating (ragweed [19]; [25]) | Horseweed plant response rating (horseweed; [25]) | Plant response rating, Rice (rice)
95: Plant response rating, Ducksalad (ducksalad)
90: Plant response rating, Oat, Wild (oat, wild [6]; [24]) | Plant response rating, Pigweed, Palmer (pigweed, palmer [7]; [23]) | Plant response rating, Wheat (wheat [11]; [23]) | Plant response rating, Wheat (wheat [11]; [24]) | Plant response rating, Blackgrass (blackgrass [12]; [26]) | Plant response rating, Corn (corn [13]; [26]) | Foxtail, Giant plant response rating (foxtail, giant [14]; [25]) | Plant response rating, Foxtail, Giant (foxtail, giant [14]; [26]) | Plant response rating, Goosegrass (goosegrass [15]; [26]) | Plant response rating, Kochia (kochia [16]; [26]) | Plant response rating, Pigweed, Palmer (pigweed, palmer [18]; [26])
65: Plant response rating, Barnyardgrass (barnyardgrass)
98: Plant response rating, Sedge, Umbrella (sedge, umbrella)
60: Plant response rating, Corn (corn [2]; [23]) | Plant response rating, Kochia (kochia [5]; [23]) | Corn plant response rating (corn [13]; [25]) | Ryegrass, Italian plant response rating (ryegrass, Italian [20]; [25])
